Test results taken from the supplement of paper PMC10307832.

Experiments:
Assay in all cases: relative viability (nuclei count vs DMSO), 5 days (fraction); higher = more cells survive
Halofuginone + Olaparib = compound: O=C(C[C@H]1NCCC[C@@H]1O)Cn1cnc2cc(Br)c(Cl)cc2c1=O (racemic) [Halofuginone] + O=C(c1cc(Cc2n[nH]c(=O)c3ccccc23)ccc1F)N1CCN(C(=O)C2CC2)CC1 [Olaparib] (partner 8 µM)
Outline: (§1)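 Nuclei were stained with Hoechst during a one-step fixation (final 0.05% Triton X-100, 1% formaldehyde, 1 ug/ml Hoechst) carried out 5 days after dosing, then counted on 4× images. The cells, lung cancer lines in 1536-well plates, had been dosed by pin tool the day after seeding with one drug alone or a fixed anchor-drug dose plus five library-drug doses (not always all listed) in √10 steps. Relative viability is the nuclei count in treated wells divided by that in vehicle wells, and each value is the median of duplicate plates.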

Decitabine + Trametinib = compound: Nc1ncn([C@H]2C[C@H](O)[C@@H](CO)O2)c(=O)n1 [Decitabine] + CC(=O)Nc1cccc(-n2c(=O)n(C3CC3)c(=O)c3c(Nc4ccc(I)cc4F)n(C)c(=O)c(C)c32)c1 [Trametinib] (partner 0.02 µM)
Outline: as §1

[1] = compound: O=C(C[C@H]1NCCC[C@@H]1O)Cn1cnc2cc(Br)c(Cl)cc2c1=O (racemic) [Halofuginone] + N=C(N)NC(=N)NCCc1ccccc1 [Phenformin] (partner 250 µM)
Outline: as §1

Decitabine + OSI-027 = compound: Nc1ncn([C@H]2C[C@H](O)[C@@H](CO)O2)c(=O)n1 [Decitabine] + COc1cccc2cc(-c3nc([C@H]4CC[C@H](C(=O)O)CC4)n4ncnc(N)c34)[nH]c12 [OSI-027] (partner 0.5 µM)
Outline: as §1

Cell Line | relative viability (Halofuginone + Olaparib; first compound 0.001 µM) | relative viability (Halofuginone + Olaparib; first compound 0.003162 µM) | relative viability (Halofuginone + Olaparib; first compound 0.01 µM) | relative viability (Halofuginone + Olaparib; first compound 0.03162 µM) | relative viability (Halofuginone + Olaparib; first compound 0.1 µM) | relative viability (Decitabine + Trametinib; first compound 0.04 µM) | relative viability (Decitabine + Trametinib; first compound 0.1265 µM) | relative viability (Decitabine + Trametinib; first compound 0.4 µM) | relative viability (Decitabine + Trametinib; first compound 1.265 µM) | relative viability (Decitabine + Trametinib; first compound 4 µM) | relative viability ([1]; first compound 0.001 µM) | relative viability ([1]; first compound 0.003162 µM) | relative viability ([1]; first compound 0.01 µM) | relative viability ([1]; first compound 0.03162 µM) | relative viability ([1]; first compound 0.1 µM) | relative viability (Decitabine + OSI-027; first compound 0.04 µM) | relative viability (Decitabine + OSI-027; first compound 0.1265 µM) | relative viability (Decitabine + OSI-027; first compound 0.4 µM) | relative viability (Decitabine + OSI-027; first compound 1.265 µM) | relative viability (Decitabine + OSI-027; first compound 4 µM)
NCI-H2347 | 0.537 | 0.583 | 0.565 | 0.518 | 0.43 | 0.295 | 0.334 | 0.267 | 0.257 | 0.287 | 0.535 | 0.521 | 0.53 | 0.477 | 0.317 | 0.382 | 0.478 | 0.34 | 0.402 | 0.383
NCI-H2405 | 0.934 | 0.864 | 0.826 | 0.795 | 0.66 | 0.575 | 0.732 | 0.645 | 0.493 | 0.407 | 0.423 | 0.436 | 0.414 | 0.396 | 0.337 | 0.555 | 0.564 | 0.543 | 0.444 | 0.399
NCI-H3122 | 0.654 | 0.618 | 0.642 | 0.692 | 0.686 | 0.213 | 0.208 | 0.243 | 0.167 | 0.218 | 0.379 | 0.37 | 0.356 | 0.355 | 0.383 | 0.814 | 0.955 | 0.468 | – | 0.559
PC-3 [JPC-3] | 1.19 | 1.12 | 1.15 | 1.15 | 0.948 | – | 0.7 | 0.498 | 0.485 | 0.657 | 0.501 | 0.453 | 0.456 | 0.473 | 0.443 | 0.463 | 0.702 | 0.475 | 0.469 | 0.426
PC-14 | 0.383 | 0.333 | 0.406 | 0.218 | 0.0499 | 0.51 | 0.343 | 0.0811 | 0.146 | 0.128 | 0.563 | 0.553 | 0.565 | 0.606 | 0.281 | 0.148 | 0.425 | 0.16 | 0.113 | 0.105
RERF-LC-KJ | 1.19 | 0.983 | 0.884 | 0.959 | 0.632 | 0.808 | 0.885 | 0.558 | 0.594 | 0.636 | 0.447 | 0.436 | 0.381 | 0.416 | 0.423 | 0.529 | 0.559 | – | 0.457 | 0.471
SK-LU-1 | 0.488 | 0.444 | 0.477 | 0.454 | 0.312 | 0.443 | 0.528 | 0.386 | 0.45 | 0.365 | 0.541 | 0.636 | 0.604 | 0.415 | 0.301 | 0.296 | 0.29 | 0.216 | 0.253 | 0.227
SK-MES-1 | 0.768 | 0.69 | 0.713 | 0.345 | 0.174 | 0.485 | 0.595 | 0.453 | 0.345 | 0.382 | 0.657 | 0.717 | 0.621 | 0.556 | 0.228 | 0.508 | 0.529 | 0.384 | 0.188 | 0.203
SW 900 | 0.805 | 0.851 | – | 0.733 | 0.197 | 0.389 | 0.435 | 0.288 | 0.262 | 0.288 | 0.657 | 0.565 | 0.695 | 0.712 | 0.4 | 0.321 | 0.349 | 0.191 | 0.183 | 0.175
SW 1573 | 0.496 | 0.422 | 0.526 | 0.232 | 0.138 | 0.44 | 0.638 | 0.368 | 0.27 | 0.301 | 0.411 | 0.389 | 0.378 | 0.357 | 0.205 | 0.469 | 0.558 | 0.572 | 0.273 | 0.21
